Measured values: ChEMBL document CHEMBL1201862, “PubChem BioAssay data set” (2004)
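Step 1: Grow cells in 96-well plates. Step 2: Expose to compound for 48 hours at 5 concentrations. Step 3: Interpolate endpoints linearly; if unreached, use highest concentration. At the GI50, growth is halved.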 Activity calls are given as the source filed them. Cut-off read from the data, not from the text of the source: active = GI50 up to about 1.1 µM and inactive = higher.

Experiments:
Test in all cases: growth of human tumour cells (NCI), 48 h
OVCAR-5 = tested on: OVCAR-5
OVCAR-3 = tested on: OVCAR-3
EKVX = tested on: EKVX
SK-OV-3 = tested on: SK-OV-3
K562 = tested on: K562
A498 = tested on: A498
OVCAR-8 = tested on: OVCAR-8
HOP-62 = tested on: HOP-62
U-251 = tested on: U-251
SK-MEL-2 = tested on: SK-MEL-2
HCC 2998 = tested on: HCC 2998
COLO 205 = tested on: COLO 205
OVCAR-4 = tested on: OVCAR-4
A549 = tested on: A549
SN12C = tested on: SN12C
PC-3 = tested on: PC-3
NCI-H226 = tested on: NCI-H226
SK-MEL-5 = tested on: SK-MEL-5
TK-10 = tested on: TK-10
SF-268 = tested on: SF-268

Measured: GI50

CN(C)C(=S)C(Cl)(c1ccccc1)c1ccccc1
inactive: OVCAR-5 > 100 µM | OVCAR-3 82 µM | EKVX 27.8 µM | SK-OV-3 > 100 µM | K562 36.2 µM | A498 > 100 µM | OVCAR-8 73.8 µM | HOP-62 > 100 µM | U-251 36.1 µM | SK-MEL-2 27.4 µM | HCC 2998 > 100 µM | COLO 205 85.7 µM | OVCAR-4 35.4 µM | A549 59.8 µM | SN12C 43.7 µM | PC-3 35.6 µM | NCI-H226 53.7 µM | SK-MEL-5 36.4 µM | TK-10 > 100 µM | SF-268 > 100 µM

COc1ccc(-n2c(N)c(C#N)[nH]c2=O)cc1
inactive: OVCAR-5 3.5 µM | OVCAR-3 > 10 µM | EKVX > 10 µM | SK-OV-3 > 10 µM | K562 > 10 µM | A498 > 10 µM | OVCAR-8 > 10 µM | HOP-62 > 10 µM | U-251 > 10 µM | SK-MEL-2 > 10 µM | HCC 2998 > 10 µM | COLO 205 > 10 µM | OVCAR-4 > 10 µM | A549 > 10 µM | SN12C > 10 µM | PC-3 > 10 µM | NCI-H226 > 10 µM | SK-MEL-5 > 10 µM | TK-10 > 10 µM | SF-268 > 10 µM

O/N=N/c1ccccn1.OCC1OC2OC3C(CO)OC(OC4C(CO)OC(OC5C(CO)OC(OC6C(CO)OC(OC7C(CO)OC(OC1C(O)C2O)C(O)C7O)C(O)C6O)C(O)C5O)C(O)C4O)C(O)C3O (configuration not stated)
inactive: OVCAR-5 > 100 µM | OVCAR-3 40.8 µM | EKVX > 100 µM | SK-OV-3 > 100 µM | K562 48.4 µM | A498 > 100 µM | OVCAR-8 > 100 µM | HOP-62 > 100 µM | U-251 > 100 µM | SK-MEL-2 56.9 µM | HCC 2998 > 100 µM | COLO 205 > 100 µM | OVCAR-4 > 100 µM | A549 > 100 µM | SN12C > 100 µM | PC-3 65.3 µM | NCI-H226 > 100 µM | SK-MEL-5 30.5 µM | TK-10 > 100 µM | SF-268 > 100 µM

FC(F)(F)c1nc2cc(SSc3cc4nc(C(F)(F)F)[nH]c4cc3Cl)c(Cl)cc2[nH]1
inactive: OVCAR-5 > 100 µM | OVCAR-3 45.2 µM | EKVX > 100 µM | SK-OV-3 > 100 µM | K562 > 100 µM | A498 > 100 µM | OVCAR-8 > 100 µM | HOP-62 > 100 µM | U-251 > 100 µM | SK-MEL-2 > 100 µM | HCC 2998 > 100 µM | COLO 205 53.7 µM | OVCAR-4 92.5 µM | A549 > 100 µM | SN12C > 100 µM | PC-3 > 100 µM | NCI-H226 53.3 µM | SK-MEL-5 65.3 µM | TK-10 > 100 µM | SF-268 > 100 µM

C[C@@]12C[C@@H](c3ccccc3O1)N1CCCCSC1=N2
inactive: OVCAR-5 > 100 µM | OVCAR-3 > 100 µM | EKVX > 100 µM | SK-OV-3 > 100 µM | K562 > 100 µM | A498 > 100 µM | OVCAR-8 > 100 µM | HOP-62 > 100 µM | U-251 > 100 µM | SK-MEL-2 > 100 µM | HCC 2998 > 100 µM | COLO 205 > 100 µM | OVCAR-4 > 100 µM | SN12C > 100 µM | PC-3 > 100 µM | NCI-H226 > 100 µM | SK-MEL-5 > 100 µM | TK-10 > 100 µM | SF-268 > 100 µM

CCOC(=O)C(SCCO)C(C(=O)OCC)n1ccc(N)nc1=O (configuration not stated)
inactive: OVCAR-5 > 100 µM | OVCAR-3 > 100 µM | EKVX > 100 µM | SK-OV-3 > 100 µM | K562 > 100 µM | A498 > 100 µM | OVCAR-8 > 100 µM | HOP-62 > 100 µM | U-251 > 100 µM | SK-MEL-2 > 100 µM | HCC 2998 > 100 µM | COLO 205 > 100 µM | OVCAR-4 > 100 µM | A549 > 100 µM | SN12C > 100 µM | PC-3 > 100 µM | NCI-H226 > 100 µM | SK-MEL-5 > 100 µM | TK-10 > 100 µM | SF-268 > 100 µM

CCN(CC)c1ncnc2c1ncn2CCNC(CO)(CO)CO
inactive: OVCAR-5 > 100 µM | OVCAR-3 > 100 µM | EKVX > 100 µM | SK-OV-3 > 100 µM | K562 > 100 µM | A498 > 100 µM | OVCAR-8 > 100 µM | HOP-62 > 100 µM | U-251 > 100 µM | SK-MEL-2 > 100 µM | HCC 2998 > 100 µM | COLO 205 > 100 µM | OVCAR-4 > 100 µM | A549 > 100 µM | SN12C > 100 µM | PC-3 > 100 µM | NCI-H226 > 100 µM | SK-MEL-5 > 100 µM | TK-10 > 100 µM | SF-268 > 100 µM

OCCSCC(O)Cn1cnc2c(O)nc(Nc3ccccc3)nc21 (configuration not stated)
inactive: OVCAR-5 > 100 µM | OVCAR-3 > 100 µM | EKVX > 100 µM | SK-OV-3 > 100 µM | A498 > 100 µM | OVCAR-8 > 100 µM | HOP-62 > 100 µM | U-251 > 100 µM | SK-MEL-2 > 100 µM | HCC 2998 > 100 µM | COLO 205 > 100 µM | OVCAR-4 > 100 µM | A549 > 100 µM | SN12C > 100 µM | PC-3 > 100 µM | NCI-H226 > 100 µM | SK-MEL-5 > 100 µM | TK-10 > 100 µM | SF-268 > 100 µM

CCOC(=O)c1c(CN2CCOCC2)n(Cc2ccccc2)c2c1cc(O)c1nc(C)c(C)nc12
inactive: OVCAR-5 > 100 µM | OVCAR-3 52.7 µM | EKVX > 100 µM | SK-OV-3 33.3 µM | K562 84.9 µM | A498 22 µM | OVCAR-8 15.5 µM | HOP-62 21.3 µM | U-251 27.4 µM | SK-MEL-2 20 µM | HCC 2998 > 100 µM | COLO 205 40 µM | OVCAR-4 47.8 µM | A549 49 µM | SN12C > 100 µM | PC-3 17.5 µM | NCI-H226 45.5 µM | SK-MEL-5 22.6 µM | TK-10 30.3 µM | SF-268 21.8 µM

N#Cc1cc(C#N)c(N)nc1N
inactive: OVCAR-5 > 100 µM | OVCAR-3 > 100 µM | EKVX > 100 µM | SK-OV-3 > 100 µM | K562 > 100 µM | A498 > 100 µM | OVCAR-8 > 100 µM | HOP-62 > 100 µM | U-251 > 100 µM | SK-MEL-2 > 100 µM | HCC 2998 > 100 µM | COLO 205 > 100 µM | OVCAR-4 > 100 µM | A549 > 100 µM | SN12C > 100 µM | PC-3 > 100 µM | NCI-H226 > 100 µM | SK-MEL-5 > 100 µM | TK-10 > 100 µM

Cc1cn(C2CC(O)C(Cn3nncc3Cn3ccc(=O)[nH]c3=O)O2)c(=O)[nH]c1=O (configuration not stated)
inactive: OVCAR-5 > 100 µM | OVCAR-3 > 100 µM | EKVX > 100 µM | SK-OV-3 > 100 µM | A498 > 100 µM | OVCAR-8 > 100 µM | HOP-62 > 100 µM | U-251 > 100 µM | SK-MEL-2 > 100 µM | HCC 2998 > 100 µM | COLO 205 > 100 µM | OVCAR-4 > 100 µM | A549 > 100 µM | SN12C > 100 µM | PC-3 > 100 µM | NCI-H226 > 100 µM | SK-MEL-5 > 100 µM | TK-10 > 100 µM | SF-268 > 100 µM

O=c1[nH]c(=O)n(C2OC(CO)C(O)C2O)cc1OCCc1ccccc1 (configuration not stated)
inactive: OVCAR-5 > 100 µM | OVCAR-3 > 100 µM | EKVX > 100 µM | SK-OV-3 > 100 µM | A498 > 100 µM | OVCAR-8 > 100 µM | HOP-62 > 100 µM | SK-MEL-2 > 100 µM | HCC 2998 > 100 µM | COLO 205 > 100 µM | OVCAR-4 > 100 µM | A549 > 100 µM | SN12C > 100 µM | PC-3 > 100 µM | NCI-H226 > 100 µM | SK-MEL-5 > 100 µM | TK-10 > 100 µM | SF-268 > 100 µM

CNc1ccc(Cl)cc1C(=O)N1CCC[C@H]1CO
inactive: OVCAR-5 > 100 µM | OVCAR-3 > 100 µM | EKVX > 100 µM | SK-OV-3 > 100 µM | K562 > 100 µM | A498 > 100 µM | OVCAR-8 > 100 µM | HOP-62 > 100 µM | U-251 > 100 µM | SK-MEL-2 > 100 µM | HCC 2998 > 100 µM | COLO 205 > 100 µM | OVCAR-4 > 100 µM | A549 > 100 µM | SN12C > 100 µM | PC-3 > 100 µM | NCI-H226 > 96.4 µM | TK-10 > 100 µM | SF-268 > 100 µM

CSc1c(C(N)=S)c(N)nn1-c1ccccc1
inactive: OVCAR-5 > 100 µM | OVCAR-3 > 100 µM | EKVX > 100 µM | SK-OV-3 > 100 µM | K562 > 100 µM | A498 > 100 µM | OVCAR-8 > 100 µM | U-251 > 100 µM | SK-MEL-2 > 100 µM | HCC 2998 > 100 µM | COLO 205 > 100 µM | OVCAR-4 > 100 µM | A549 > 100 µM | SN12C > 100 µM | PC-3 > 100 µM | NCI-H226 > 100 µM | SK-MEL-5 > 100 µM | TK-10 > 100 µM | SF-268 > 100 µM
